{"source": "patent US4431664A", "about": "“Compound with antiulcerogenic activity, process for the preparation thereof and pharmaceutical composition therefrom” (Ausonia Farmaceutici s.r.l., priority 1981, dated 1984)", "tested_on": "mouse", "experiment": "Toxicity by single intraperitoneal administration, LD50 (Litchfield and Wilcoxon)", "assay_type": "in vivo", "conditions": "i.p., in words", "description": "The toxicity of AP 880 by single administration has been studied in comparison with the toxicity of ranitidine in mouse, by administration of larger and larger doses of compound (I) by the intraperitoneal route. The LD50 values, determined according to the method of Litchfield and Wilcoxon (J. Pharm. Exp. Ther. 96-99, (1949)) are reported in the following Table: […]"}
{"compound": "CN(C)Cc1ccc(CSCCNC(=C[N+](=O)[O-])NCc2ccc3c(c2)OCO3)o1", "note": "[AP 880, N-(2-(((5-(dimethylamino)-methyl-2-furanyl)-methyl)-thio)-ethyl)-N'-(3,4-methylenedioxybenzyl)-2-nitro-1,1-ethendiamine]", "values": [{"measurement": "toxicity with respect to ranitidine", "result": "substantially lower toxicity"}]}
